Measured values: US5159081A, “Intermediates of peripherally selective N-carbonyl-3,4,4-trisubstituted piperidine opioid antagonists” (Eli Lilly and Company, priority 1991, dated 1992)
pKi: −log10 of the molar value. Like-named read-outs stand apart in the source and are kept apart here.

Key:
[1] = molecular target: T1, mu receptor (Rattus norvegicus, UniProt P33535); experiment: Naloxone [3H] opioid receptor binding assay (mu receptor); design: species or system rat (male Sprague Dawley)
T1 construct: The brain tissue, rat whole brain minus cerebellum for mu was homogenized; from tissue; host or cells: brain minus cerebellum of male Sprague Dawley rats, homogenate fraction

[2] = test system: peripheral opioid receptors; experiment: mouse diarrhea test: precipitated diarrhea in morphine-maintained mice (peripheral opioid activity); assay type: in vivo
[3] = molecular target: peripheral opioid receptors (Mus musculus, UniProt P42866); experiment: as above; assay type: in vivo; details: mouse diarrhea test, morphine-maintained mice, subcutaneous or oral, 30 min observation
[4] = molecular target: T2, opioid receptor (Mus musculus, UniProt P42866); experiment: in vivo; design: species or system CF-1 male mice; details: sc
T2 construct: Five CF-1 male mice (Charles River, Portage, MI); from tissue; host or cells: living CF-1 male mice (whole animal, endogenous receptor)

[5] = 20 min, pH 7.4, 10 nM test compound, [3H]naloxone 0.5 nM, mu receptor, read-out: % displacement at 10 nM
[6] = 20 min, pH 7.4, 100 nM test compound, [3H]naloxone 0.5 nM, mu receptor, read-out: % displacement at 100 nM
[7] = AD50 mouse writhing / ED50 mouse diarrhea, higher = greater relative peripheral antagonism
[8] = mouse writhing test, […], s.c. 20 min before acetic acid, read-out: AD50 (the source's name)
[9] = 20 min, pH 7.4, read-out: % displacement at 10 nM
[10] = 20 min, pH 7.4, read-out: % displacement at 100 nM
[11] = […], rat whole brain minus cerebellum, [3H]naloxone 0.5 nM, pH 7.4, 37° C., 20 min, read-out: Ki
[12] = mouse writhing test, dose of antagonist that reduced inhibition of writhing by 1.25 mg/kg morphine sulfate to 50%, s.c. 20 min before acetic acid, read-out: AD50 (the source's name)

Chain of peripheral opioid receptors (Mus musculus, UniProt P42866) (P42866 whole entry): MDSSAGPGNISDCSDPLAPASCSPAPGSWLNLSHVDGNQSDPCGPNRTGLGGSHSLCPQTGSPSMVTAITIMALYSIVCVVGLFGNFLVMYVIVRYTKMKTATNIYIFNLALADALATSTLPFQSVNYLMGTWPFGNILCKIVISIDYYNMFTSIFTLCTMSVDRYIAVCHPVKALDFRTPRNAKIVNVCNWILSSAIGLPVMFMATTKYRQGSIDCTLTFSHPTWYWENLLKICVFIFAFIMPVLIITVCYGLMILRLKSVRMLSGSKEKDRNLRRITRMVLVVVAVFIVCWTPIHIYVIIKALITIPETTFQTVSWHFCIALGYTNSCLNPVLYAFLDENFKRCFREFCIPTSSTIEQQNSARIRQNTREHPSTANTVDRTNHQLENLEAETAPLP
T2 sequence (P42866 whole entry): as above
T1 sequence (P33535 whole entry): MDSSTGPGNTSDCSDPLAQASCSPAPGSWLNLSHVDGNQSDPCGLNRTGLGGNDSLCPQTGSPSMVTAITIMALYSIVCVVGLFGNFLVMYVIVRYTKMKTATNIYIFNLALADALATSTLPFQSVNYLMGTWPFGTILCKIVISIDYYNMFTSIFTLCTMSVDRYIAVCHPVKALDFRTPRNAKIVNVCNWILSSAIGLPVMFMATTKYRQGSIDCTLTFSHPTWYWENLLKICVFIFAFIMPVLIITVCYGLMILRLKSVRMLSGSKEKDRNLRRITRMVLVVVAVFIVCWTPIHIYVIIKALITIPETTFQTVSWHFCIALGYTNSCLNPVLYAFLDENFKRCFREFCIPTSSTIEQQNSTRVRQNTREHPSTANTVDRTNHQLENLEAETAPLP

| SMILES | inhibition at 0.01 µM [1, 5] | inhibition at 0.1 µM [1, 6] | Ratio (ratio of AD50 to ED50) [2, 7] | ED50 ([3]; 0.5 h, read-out: ED50) | ED50 [4, 8] | inhibition at 0.01 µM [1, 9] | inhibition at 0.1 µM [1, 10] | pKi [1, 11] | ED50 [3] | ED50 [4, 12] | inhibition at 0.01 µM ([1]; 20 min, pH 7.4, 10 nM test compound, [3H]naloxone 0.5 nM, […], read-out: % displacement at 10 nM) | pKi [1] | Ratio (ratio of AD50 to ED50) ([2]; mouse, in vivo) | ED50 ([4]; mouse, read-out: AD50) |
| --- | --- | --- | --- | --- | --- | --- | --- | --- | --- | --- | --- | --- | --- | --- |
| CC(C)COC(=O)CCC(=O)N(CCN1CC[C@@](C)(c2cccc(O)c2)[C@@H](C)C1)C1CCCCC1 (relative stereo) [Example 72] | 73% | 96% | 324 | 0.017 mg/kg | 5.5 mg/kg | – | – | – | – | – | – | – | – | – |
| C[C@H]1CN(CCN(C(=O)CCC(=O)OCC2CCCCC2)C2CCCCC2)CC[C@@]1(C)c1cccc(O)c1 (relative stereo) [Example 73] | 46% | 88% | 54 | 0.17 mg/kg | 9.2 mg/kg | – | – | – | – | – | – | – | – | – |
| CCOC(=O)CCC(=O)NC(CCN1CC[C@@](C)(c2cccc(O)c2)[C@@H](C)C1)CC(C)C (single isomer, unassigned) [Example 2A, 4-[[1-[2-[4-(3-hydroxyphenyl)-3,4-dimethyl-1-piperidinyl]-ethyl]-3-methylbutyl)amino]-4-oxobutanoic acid ethyl ester] | – | – | 29 | – | 8.4 mg/kg | 98% | 100% | 9.19 | 0.29 mg/kg | – | – | – | – | – |
| CC1CN(C[C@H](CC2CCCCC2)NC(=O)CCCC(=O)O)CCC1(C)c1cccc(O)c1 (single isomer, unassigned; (+)) [Example 16] | – | – | > 166 | – | > 20 mg/kg | 97% | 100% | 9.02 | 0.12 mg/kg | – | – | – | – | – |
| C[C@H]1CN(CCC(NC(=O)C(CCCNC(=N)N[N+](=O)[O-])NC(=O)CCCC(=O)NCc2ccccc2)c2ccccc2)CC[C@@]1(C)c1cccc(O)c1 (single isomer, unassigned; (-)) [Example 8, (-)-N-(1-phenyl-3-(trans-4-(3-hydroxyphenyl)-3,4-dimethyl-1-piperidinyl)propyl)-2-((1,5-dioxo-5-(phenylmethyl)amino)pentyl)amino-5-((imino(nitroamino)methyl)-amino)pentanamide] | – | – | > 2 | – | – | 95% | 99% | 9.17 | 0.64 mg/kg | > 1.25 mg/kg | – | – | – | – |
| CC(C)C(=O)NCCCC(=O)NC(CCCNC(=N)N[N+](=O)[O-])C(=O)NC(CCN1CC[C@@](C)(c2cccc(O)c2)[C@@H](C)C1)c1ccccc1 (single isomer, unassigned; (-)) [Example 9, (-)-N-(1-phenyl-3-(trans-4-(3-hydroxyphenyl)-3,4-dimethyl-1-piperidinyl)propyl)-2-((1-oxo-4-(2-methyl-1-oxopropyl)amino)butyl)amino-5-((imino(nitroamino)-methyl)amino)pentanamide] | – | – | > 5 | – | – | – | 100% | 8.88 | 0.25 mg/kg | > 1.25 mg/kg | 92% | – | – | – |
| C[C@H]1CN(CCC(CC2CCCCC2)NC(=O)CCC(=O)O)CC[C@@]1(C)c1cccc(O)c1 (stereo partly shown) [Example 1, 4-[(3-(4-(3-hydroxyphenyl)-3,4-dimethyl-1-piperidinyl)-1-(cyclohexylmethyl)propyl)amino]-4-oxobutanoic acid monohydrate] | – | – | – | – | – | 72% | 94% | – | 0.01 mg/kg | – | – | 8.16 | > 4000 | > 40 mg/kg |
| C[C@H]1CN(CC(Cc2ccccc2)NC(=O)CCC(=O)O)CC[C@@]1(C)c1cccc(O)c1 (stereo partly shown) [Example 14] | – | – | 656 | – | 21 mg/kg | 20% | 64% | 7.49 | – | – | – | – | – | – |
| COC(=O)[C@H](Cc1ccccc1)NC(=O)CCC(=O)N(CCN1CCC(C)(c2cccc(O)c2)C(C)C1)C1CCCCC1 (stereo partly drawn) [Example 41, 2-((1,4-dioxo-4-(cyclohexyl-(2-(trans-4-(3-hydroxyphenyl)-3,4-dimethyl-1-piperidinyl)ethyl)amino)butyl)-amino)-3-phenylpropanoic acid, methyl ester] | – | – | 74 | – | 32 mg/kg | 87% | 99% | 8.61 | – | – | – | – | – | – |
| COC(=O)CCCC(=O)N[C@@H](CC1CCCCC1)CN1CC[C@](C)(c2cccc(O)c2)[C@H](C)C1 [Example 49] | – | – | – | – | 9.9 mg/kg | 83% | 97% | 8.09 | > 10 mg/kg | – | – | – | – | – |
